From PubChem BioAssay (NCI)
Where “and” joins values, the source holds several entries; their conditions need not be identical. Equal entries are not always repeated.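 Dose response: 5 concentrations. Exposure: 48 h. Format: 96-well plates. Endpoint: linear interpolation; highest concentration if not reached. Here, GI50 denotes the concentration required for 50% inhibition of growth. TGI denotes the concentration required for complete inhibition of growth.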

Assays:
Experiment in all cases: DTP human tumour cell line panel, 48 h
[1] = tested on: BT-549 breast
[2] = tested on: IGROV1 ovarian
[3] = tested on: K-562 leukemia
[4] = tested on: M14 melanoma
[5] = tested on: MCF7 breast
[6] = tested on: MDA-MB-435
[7] = tested on: RPMI-8226 leukemia
[8] = tested on: U251 CNS
[9] = tested on: UO-31 renal
[10] = tested on: SK-OV-3 ovarian

Row | Compound | GI50 [1] | TGI [1] | GI50 [2] | TGI [2] | GI50 [3] | TGI [3] | GI50 [4] | TGI [4] | GI50 [5] | TGI [5] | GI50 [6] | TGI [6] | GI50 [7] | TGI [7] | GI50 [8] | TGI [8] | GI50 [9] | TGI [9] | TGI [10] | GI50 [10]
1 | COc1ccc2c(c1)C(=O)c1c-2c(OCCN(C)C)nc2cc(OC)ccc12 | 4.03 µM | 15.2 µM | 1.01 µM | 6.03 µM | 1.06 µM | 2.82 µM | 1.51 µM | 3.05 µM | 0.348 µM | 1.6 µM | 1.62 µM | 3.72 µM | 1.71 µM | 5.09 µM | 1.2 µM | 2.93 µM | 1.16 µM | 2.66 µM | – | –
2 | CSC1=Nc2c(c(C)c(-c3ccccc3)n2CCCCl)C2=NC(=O)CN12 | 4.93 µM | 35.6 µM | 3.59 µM | 21.1 µM | 5.77 µM | > 100 µM | 3.32 µM | 15.2 µM | 3.42 µM | 16.5 µM | 2.03 µM | 4.65 µM | 3.68 µM | 66.5 µM | 3.92 µM | 16.4 µM | 10.5 µM | 28.6 µM | – | –
3 | COc1ccc(C(=O)Nc2ccc(S(=O)(=O)NCC(=O)O)cc2)cc1 | – | – | – | > 100 µM | – | > 100 µM | – | > 100 µM | – | – | – | – | – | > 100 µM | – | > 100 µM | – | > 100 µM | > 100 µM | –
4 | CCOC(=O)C12CCSC1C1(C#N)C(C#N)=CC2(N=P(c2ccccc2)(c2ccccc2)c2ccccc2)n2c(=O)n(-c3ccccc3)c(=O)n21 (configuration not stated) | – | – | – | > 100 µM | – | > 100 µM | – | > 100 µM | – | – | – | – | – | 73.4 µM | – | > 100 µM | – | 77.2 µM | – | –
5 | CCCCCCCCCCCCC/C=C1\C[C@H](O)COC1=O | – | – | – | 32.3 µM | – | 33.1 µM | – | 28.3 µM | – | – | – | – | – | 41 µM | – | 32 µM | – | 32.6 µM | 35.1 µM | –
6 | CN(C)CCNC(=O)c1cccc2ccc(-c3cccnc3)nc12 | – | – | – | 25.6 µM | – | > 100 µM | – | 20.7 µM | – | – | – | – | – | – | – | 19.3 µM | – | 9.71 µM | 36.9 µM | –
7 | O=c1c2[nH]c3ccccc3c2nc2n1CCS2 | – | – | – | – | > 100 µM | > 100 µM | > 100 µM | > 100 µM | > 100 µM | > 100 µM | > 100 µM | > 100 µM | > 100 µM | > 100 µM | > 100 µM | > 100 µM | 47.2 µM | > 100 µM | > 100 µM | > 100 µM
8 | O=c1c2cc(Br)ccc2nc(-c2ccccc2)n1NCC1(O)OCC(O)C(O)C1O (configuration not stated) | – | – | – | – | – | > 100 µM | – | > 100 µM | – | – | – | – | – | > 100 µM | – | > 100 µM | – | > 100 µM | > 100 µM | –
9 | COc1cc(/C=C2\CCCC3C2=Nc2ccccc2NC3c2cc(OC)c(OC)c(OC)c2)cc(OC)c1OC (configuration not stated) | 1.58 µM | 5.5 µM | 4.1 µM | 18.5 µM | 2.1 µM | 10.3 µM | 1.27 µM | 4.23 µM | 2.48 µM | > 100 µM | 0.425 µM | 4.4 µM | 0.389 µM | 2.4 µM | – | – | 1.66 µM | 4.48 µM | > 100 µM | 4.87 µM
10 | COc1cc(OC)cc(-c2ccc(-c3ccc(C(=N)N)s3)s2)c1 | – | – | 2.03 µM | 3.99 µM | 0.346 µM and 0.178 µM | 1.11 µM and 0.441 µM | 1.1 µM | 2.74 µM | 0.271 µM | 1.22 µM | 0.271 µM | 0.991 µM | 0.286 µM and 0.218 µM | 0.866 µM and 0.483 µM | 0.404 µM | 1.73 µM | 1.51 µM | 3.31 µM | – | –
11 | Cc1ccc(/C=N/NS(=O)(=O)c2ccccc2)cc1 | – | – | – | > 100 µM | – | > 100 µM | – | > 100 µM | – | – | – | – | – | > 100 µM | – | > 100 µM | – | > 100 µM | > 100 µM | –
12 | COc1cc[c]([Sb]([Br])([CH]=C(C)C)([CH]=C(C)C)[CH]=C(C)C)cc1 | – | – | 3.06 µM | 66.1 µM | 4.54 µM | > 100 µM | 6.29 µM | 42.5 µM | – | – | – | – | 0.868 µM | 5.47 µM | 9.37 µM | 72.8 µM | 29.5 µM | 73.1 µM | 48.3 µM | 8.94 µM
13 | COc1ccc2c(c1)CC[C@@H]1[C@@H]2CC[C@]2(C)c3[nH]ncc3C[C@@H]12 | 26 µM | > 50 µM | 21.9 µM | > 50 µM | – | – | 16.4 µM | > 50 µM | 13.4 µM | 35.7 µM | 14.7 µM | 44.5 µM | 10.2 µM | 32.8 µM | 18.2 µM | > 50 µM | 19.6 µM | > 50 µM | > 50 µM | 35.7 µM
14 | CC1(C(=O)NCCN(CCNC(=O)C2(C)CC3(C)CC(C)(C2)C(=O)NC3=O)CCNC(=O)C2(C)CC3(C)CC(C)(C2)C(=O)NC3=O)CC2(C)CC(C)(C1)C(=O)NC2=O (configuration not stated) | – | – | – | > 100 µM | – | > 100 µM | – | > 100 µM | – | – | – | – | – | > 100 µM | – | > 100 µM | – | > 100 µM | > 100 µM | –
15 | NC1=NN(c2ccccc2)C(=O)C1/C(=N\NC(=O)c1cc2ccccc2cc1O)C(=O)Nc1nc([N+](=O)[O-])cs1 (configuration not stated) | – | – | – | 94.4 µM | – | 42.2 µM | – | > 95.5 µM | – | – | – | – | – | 87.8 µM | – | > 100 µM | – | 30.3 µM | > 100 µM | –
16 | NCCn1ccc(NC(c2ccccc2)(c2ccccc2)c2ccccc2)nc1=O | – | – | – | > 100 µM | – | 44.9 µM | – | – | – | – | – | – | – | 46.3 µM | – | 39.4 µM | – | > 100 µM | – | –
17 | COC1=C(C)C(=O)C2=C(C1=O)C(CO)N1C(C#N)C3CC4C(C1C2N1CCOC41)N3C (configuration not stated) | 0.00373 µM and 0.0232 µM and < 0.01 µM | 0.00951 µM and 0.0873 µM and < 0.0111 µM | 0.00217 µM and 0.0216 µM | – | 0.00627 µM and < 0.01 µM | 0.547 µM and 0.0682 µM and 0.123 µM | – | – | – | – | – | – | 0.0177 µM | – | – | – | – | – | 1.32 µM and 2.7 µM and 1.7 µM | –
18 | NC(=S)N/N=C1\C(=O)N(CCc2ccccc2)C(=O)C1C(=O)NCCc1ccccc1 (configuration not stated) | – | – | – | > 100 µM | – | > 100 µM | – | > 100 µM | – | – | – | – | – | > 100 µM | – | > 100 µM | – | > 100 µM | > 100 µM | –
19 | Cc1cc2c(=O)cc(-c3ccc(C(F)(F)F)cc3)oc2c(C(=O)O)c1C | – | – | – | > 100 µM | – | > 100 µM | – | > 100 µM | – | – | – | – | – | > 100 µM | – | > 100 µM | – | > 100 µM | > 100 µM | –
20 | O=C(c1ccco1)c1ccccc1C(=O)c1ccco1 | – | – | – | > 100 µM | – | > 100 µM | – | > 100 µM | – | – | – | – | – | – | – | > 100 µM | – | > 100 µM | – | –
21 | N.N.N.N.N.N#N.[Cl-].[Os+7] | – | – | > 100 µM | > 100 µM | – | – | > 100 µM | > 100 µM | – | – | – | – | > 100 µM | > 100 µM | > 100 µM | > 100 µM | > 100 µM | > 100 µM | – | –
